Experimental data reported in patent US7678799B2 (Teva Pharmaceutical Industries Ltd., priority 2003, dated 2010).
Counter-ions that a name gives are not always drawn. Each block holds one molecule with its values, some of them ahead of it.

What was measured:
[1] = Heating of crystalline ziprasidone HCl forms, crystal form by XRD; type: physicochemical; details: for Crystal form after heating at 80-105° C. overnight: HCl
Excerpt: (§1) In addition, no more than 5% of Form A transforms into Form M during heating and also during exposure to 0% relative humidity.
(§2) X-Ray powder diffraction data were obtained using by method known in the art using a SCINTAG powder X-Ray diffractometer model X'TRA equipped with a solid state detector. Copper radiation of 1.5418 Å was used. A round aluminum sample holder with round zero background quartz plate, with cavity of 25(diameter)*0.5(dept) mm. Detection limit: 5%.

[2] = Storage stability at 25, 40 and 55° C., crystal form by XRD; type: physicochemical
Excerpt: (§3) Ziprasidone HCl Form M, however, converts to the anhydrous form under heating (see table 1 and FIG. 8) or exposure to 0% relative humidity (see table 6 and FIG. 10).
(§4) This crystalline form may be sesquihydrate.
as §2

[3] = Storage at 0% relative humidity, crystal form by XRD; type: physicochemical; details: for transformed into Form M upon exposure to 0% relative humidity: 0% humidity, prolonged periods (such as 3 weeks)
Excerpt: as §1, §3, §4, §2

[4] = Specific surface area measurement (BET, Coulter SA3100); type: physicochemical; details: for Specific surface area: BET
Excerpt: Preferably, the SSA is about 5 to about 20 m^2/g.
Specific surface area measurement: • Instrument: Coulter SA3100 • Degassing: without • Sensitivity: high • Calculation: BET • Type: multipoint • Points: 10 • Sample cell: 9 and 12cm^3

[5] = Slurry of Form A in water or ethanol, transformation to Form M; type: physicochemical
[6] = Equilibration of ziprasidone HCl form E at different relative humidities for 22 days (TGA, XRD); type: physicochemical; details: for TGA weight loss (water uptake) / Crystal form: 22 days
Protocol: The slurry temperature is preferably at least about 40° C. when using THF.
as §2
TGA analysis was done using a Mettler M3 meter. The weight of the samples was about 10 mg; the samples were scanned at a rate of 10° C./min from 25° C. to 200° C. The oven was constantly purged with nitrogen gas at a flow rate of 40 ml/min. Standard 70 μl alumina crucibles covered by lids with 1 hole were used.

[7] = cited from earlier work

Structure (SMILES): O=C1Cc2cc(CCN3CCN(c4nsc5ccccc45)CC3)c(Cl)cc2N1 [Form A, ziprasidone HCl]
temperature of heating without a change in the crystal structure [1]: up to 140 °C
Crystal form after heating at 80-105° C. overnight [1]: Form A
Form A transformed into Form M during heating ([1]; heating): no more than 5%
transformed into Form M upon storage under accelerated aging conditions ([2]; 40° C., 75% RH, at least about 6 months): no more than 5%
transformed into Form M upon exposure to 0% relative humidity ([3]; HCl): no more than 5%
Crystal form upon storage at 0% relative humidity ([3]; HCl): Form A
specific surface area (SSA) ([4]; as measured by BET, general statement): higher than 4 m^2/g
transforms to Form M ([5]; ethanol slurry): 95%
Form A transformed into Form M ([5]; slurried in water): no more than 5%

Structure (SMILES): O=C1Cc2cc(CCN3CCN(c4nsc5ccccc45)CC3)c(Cl)cc2N1 [Example 17, ziprasidone HCl]
Specific surface area ([4]; cell volume = 12 cm^3, HCl): 14.646 m^2/g
Specific surface area ([4]; cell volume = 12 cm^3, listed as Sample prepared according to example 17, HCl): 14.646 m^2/g

Structure (SMILES): O=C1Cc2cc(CCN3CCN(c4nsc5ccccc45)CC3)c(Cl)cc2N1 [Form E, ziprasidone HCl]
TGA weight loss (water uptake) ([6]; RH 0%): 5.3%
TGA weight loss (water uptake) ([6]; RH 20%): 7.2%
TGA weight loss (water uptake) ([6]; RH 40%): 4.8%
TGA weight loss (water uptake) ([6]; RH 60%): 5.0%
Crystal form ([6]; RH 80%): M + A
TGA weight loss (water uptake) ([6]; RH 80%): 9.2%
Crystal form ([6]; RH 100%): M + A + amorphous
crystal form after exposure to relative humidity ([6]; relative humidity of about 20% to about 60% for about 22 days): Form A

Structure (SMILES): O=C1Cc2cc(CCN3CCN(c4nsc5ccccc45)CC3)c(Cl)cc2N1 [Example 15, ziprasidone HCl, reference compound]
Specific surface area ([4]; cell volume = 9 cm^3, HCl): 3.908 m^2/g
Specific surface area ([4]; cell volume = 9 cm^3, listed as Repetition of U.S. Pat. No. 6,150,366 procedure (comparative example 15), HCl): 3.908 m^2/g

Structure (SMILES): O=C1Cc2cc(CCN3CCN(c4nsc5ccccc45)CC3)c(Cl)cc2N1 [Crystalline ziprasidone HCl having a water content of 4.6-6.]
transforms into Form M upon storage ([2]; 25, 40 and 55° C. for at least 3 months): No more than 5%
transformed into Form M upon exposure to 0% relative humidity ([3]; listed as solid crystalline ziprasidone HCl having a water content of about 4.6% to about ): No more than 5%

Structure (SMILES): O=C1Cc2cc(CCN3CCN(c4nsc5ccccc45)CC3)c(Cl)cc2N1 [Example 18, ziprasidone HCl]
Specific surface area ([4]; cell volume = 12 cm^3, HCl): 18.831 m^2/g
Specific surface area ([4]; cell volume = 12 cm^3, listed as Sample prepared according to example 18, HCl): 18.831 m^2/g

Structure (SMILES): O=C1Cc2cc(CCN3CCN(c4nsc5ccccc45)CC3)c(Cl)cc2N1 [Ziprasidone HCl]
solubility in water [7]: 80 µg/mL

Second part, the molecule after the results:

Specific surface area ([4]; cell volume = 9 cm^3, HCl): 3.909 m^2/g
Structure (SMILES): O=C1Cc2cc(CCN3CCN(c4nsc5ccccc45)CC3)c(Cl)cc2N1 [Repetition of U.S. Pat. No. 5,312,925 Example 2] [ziprasidone HCl, reference compound]

Specific surface area ([4]; cell volume = 9 cm^3, HCl): 2.135 m^2/g
Structure (SMILES): O=C1Cc2cc(CCN3CCN(c4nsc5ccccc45)CC3)c(Cl)cc2N1 [Repetition of U.S. Pat. No. 6,150,366 Example 10] [ziprasidone HCl, reference compound]

Crystal form after heating at 80-105° C. overnight [1]: Anhydrous
Crystal form upon storage at 0% relative humidity ([3]; HCl): Anhydrous
Structure (SMILES): O=C1Cc2cc(CCN3CCN(c4nsc5ccccc45)CC3)c(Cl)cc2N1 [Form M, ziprasidone HCl, reference compound]

Specific surface area ([4]; cell volume = 9 cm^3, HCl): 11.335 m^2/g
Specific surface area ([4]; cell volume = 9 cm^3, listed as Sample prepared according to example 19, HCl): 11.335 m^2/g
Structure (SMILES): O=C1Cc2cc(CCN3CCN(c4nsc5ccccc45)CC3)c(Cl)cc2N1 [Example 19, ziprasidone HCl]

Specific surface area ([4]; cell volume = 9 cm^3, HCl): 5.461 m^2/g
Specific surface area ([4]; cell volume = 9 cm^3, listed as Sample prepared according to example 16, HCl): 5.461 m^2/g
Structure (SMILES): O=C1Cc2cc(CCN3CCN(c4nsc5ccccc45)CC3)c(Cl)cc2N1 [Example 16, ziprasidone HCl]
